Measured values: US9499535B2, “Kinase inhibitors” (ORIGENIS GMBH, priority 2011, dated 2016)

Experiments:
SYK kinase = target: T1, SYK kinase (Homo sapiens, UniProt P43405); assay: SYK assay (OMNIA Kinase Assay, Invitrogen); assay type: biochemical; settings: apparent Ki calculated from the IC50 using the Cheng-Prusoff equation; 1 mM ATP, 10 μM Peptide Substrate; read-out: SYK Activities: Ki
T1 construct: purchased Invitrogen, Carlsbad
Method: In the assay OMNIA® KINASE ASSAY by Invitrogen Corporation (Carlsbad) the effect of invention of a compound on the phosphorylation is determined by measurement of fluorescence intensity of a chelation-enhanced fluorophore called SOX. Upon phosphorylation of the peptide by the kinase of interest, Mg2+ is chelated to form a bridge between the SOX moiety and the phosphate group that is transferred to the specific tyrosine on the peptide. The fluorescence intensity is directly proportional to the amount of peptide phosphorylation.
To the wells of an 384 well small volume plate (Greiner, Frickenhausen) are added (i) the compound under test in 5% DMSO/distilled water (2 μl), (ii) 16 μl of the master mix containing ATP, DTT, Kinase Reaction Buffer, Omina Peptide Substrate Tyr 7 resulting in a final concentration of 1 mM ATP, 0.2 mM DTT and 10 μM Peptide Substrate.
The Master Mix and the assay plate was incubated to reaction temperature before the measurement (30° C.). The reaction was started with addition of (iii) 2 μl 4 μg/ml SYK kinase (Invitrogen, Carlsbad). During measurement fluorescence intensitiy readings were collected using a TECAN M1000 at a wavelength of λex 360/λem 485 nm every 30 s for 30 minutes. The reaction velocity was plotted versus the inhibitor concentration to determine the IC50 using XLFit 5.0 (IDBS, Guildford) to fit to a sigmoidal dose response curve, and the apparent Ki values were calculated from the IC50 using the Cheng-Prusoff equation (Cheng, Y.; Prusoff, W. H. Biochem. Pharmacol. 22, 3099-3108, 1973).

LRRK2 = LRRK2 (Homo sapiens, UniProt Q5S007); assay: LRRK2 assay (LanthaScreen Eu Kinase Binding Assay); settings: 5 nM LRRK2, 10 nM tracer 236, RT 1 h; read-out: LRRK2 Activites: IC50
Source text: Binding of the tracer to the kinase is detected using a europium-labeled anti-tag antibody, which binds to the kinase of interest. […] Binding of an inhibitor to the kinase competes for binding with the tracer, resulting in a loss of FRET. The fluorescence intensity ratio is directly proportional to the amount of peptide phosphorylation.
The inhibitor concentration was plotted versus the emission ratio to determine the IC50 using XLFit 5.0 (IDBS, Guildford) to fit to a sigmoidal dose response curve with a variable slope.

Chain of LRRK2 (Q5S007 970-2527 limits assumed): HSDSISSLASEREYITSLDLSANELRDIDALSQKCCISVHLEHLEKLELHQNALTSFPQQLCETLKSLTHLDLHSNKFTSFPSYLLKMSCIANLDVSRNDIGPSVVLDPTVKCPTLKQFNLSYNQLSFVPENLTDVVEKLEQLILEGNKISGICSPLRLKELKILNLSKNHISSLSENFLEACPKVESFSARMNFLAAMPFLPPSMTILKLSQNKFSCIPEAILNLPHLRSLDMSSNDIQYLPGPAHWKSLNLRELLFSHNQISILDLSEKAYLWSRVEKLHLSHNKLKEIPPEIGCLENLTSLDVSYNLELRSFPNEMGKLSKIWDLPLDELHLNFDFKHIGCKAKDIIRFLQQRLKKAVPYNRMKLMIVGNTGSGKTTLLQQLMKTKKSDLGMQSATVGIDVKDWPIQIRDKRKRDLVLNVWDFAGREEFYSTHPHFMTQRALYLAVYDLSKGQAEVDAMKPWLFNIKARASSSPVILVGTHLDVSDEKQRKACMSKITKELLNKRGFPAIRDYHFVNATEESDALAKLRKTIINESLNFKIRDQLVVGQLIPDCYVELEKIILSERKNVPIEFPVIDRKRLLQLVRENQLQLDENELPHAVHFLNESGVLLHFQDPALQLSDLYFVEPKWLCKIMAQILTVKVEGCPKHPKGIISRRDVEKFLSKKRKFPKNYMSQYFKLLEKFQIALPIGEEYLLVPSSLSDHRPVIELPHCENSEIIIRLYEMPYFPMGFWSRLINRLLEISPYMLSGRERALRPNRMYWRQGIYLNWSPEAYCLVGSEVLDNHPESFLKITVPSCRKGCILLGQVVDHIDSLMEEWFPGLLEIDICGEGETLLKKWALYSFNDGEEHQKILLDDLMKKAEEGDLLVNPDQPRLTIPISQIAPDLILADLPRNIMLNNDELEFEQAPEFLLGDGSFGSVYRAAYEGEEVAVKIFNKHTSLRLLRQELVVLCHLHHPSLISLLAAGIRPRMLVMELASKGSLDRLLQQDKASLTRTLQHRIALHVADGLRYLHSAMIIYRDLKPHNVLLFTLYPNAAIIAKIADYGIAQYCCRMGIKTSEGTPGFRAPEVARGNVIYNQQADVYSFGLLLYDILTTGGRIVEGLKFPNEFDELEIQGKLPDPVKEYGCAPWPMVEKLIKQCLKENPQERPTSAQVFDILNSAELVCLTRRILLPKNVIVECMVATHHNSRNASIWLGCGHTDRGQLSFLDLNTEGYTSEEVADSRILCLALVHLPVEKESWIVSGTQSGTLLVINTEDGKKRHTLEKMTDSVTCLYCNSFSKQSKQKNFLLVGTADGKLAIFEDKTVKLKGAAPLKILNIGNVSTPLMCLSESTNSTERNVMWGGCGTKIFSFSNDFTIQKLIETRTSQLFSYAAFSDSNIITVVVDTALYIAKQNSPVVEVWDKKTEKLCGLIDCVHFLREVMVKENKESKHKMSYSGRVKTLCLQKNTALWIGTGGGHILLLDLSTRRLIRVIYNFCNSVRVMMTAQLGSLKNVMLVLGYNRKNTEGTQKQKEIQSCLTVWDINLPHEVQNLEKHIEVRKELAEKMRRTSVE

SMILES	Ki (SYK kinase) [nM]	IC50 (LRRK2) [nM]
COc1cc(Nc2nc3ccccc3c3c[nH]nc23)cc(OC)c1OC [Example #3, (2H-Pyrazolo[3,4-c]quinolin-4-yl)-(3,4,5-trimethoxy-phenyl)-amine]	100 to 1000	100 to 1000
COc1ccc2nc(Nc3ccc4cnn(C)c4c3)c3n[nH]cc3c2c1 [Example #40, (8-Methoxy-2H-pyrazolo[3,4-c]quinolin-4-yl)-(1-methyl-1H-indazol-6-yl)-amine]	< 10	100 to 1000
Brc1ccc2nc(Nc3ccc4[nH]ncc4c3)c3n[nH]cc3c2c1 [Example #45, (8-Bromo-2H-pyrazolo[3,4-c]quinolin-4-yl)-(1H-indazol-5-yl)-amine]	10 to 100	100 to 1000
O=C1COc2ccc(Nc3nc4ccccc4c4cn[nH]c34)cc2N1 [Example #46, 6-(3H-Pyrazolo[3,4-c]quinolin-4-ylamino)-4H-benzo[1,4]oxazin-3-one]	10 to 100	100 to 1000
COc1ccc2nc(Nc3ccc4c(c3)NC(=O)CO4)c3[nH]ncc3c2c1 [Example #47, 6-(8-Methoxy-3H-pyrazolo[3,4-c]quinolin-4-ylamino)-4H-benzo[1,4]oxazin-3-one]	–	10 to 100
COc1ccc2nc(Nc3ccc(N4CCCCC4)cc3)c3n[nH]cc3c2c1 [Example #50, (8-Methoxy-2H-pyrazolo[3,4-c]quinolin-4-yl)-(4-piperidin-1-yl-phenyl)-amine]	10 to 100	100 to 1000
COc1ccc2nc(Nc3ccc(N(C)C)cc3)c3n[nH]cc3c2c1 [Example #51, N-(8-Methoxy-2H-pyrazolo[3,4-c]quinolin-4-yl)-N′,N′-dimethyl-benzene-1,4-diamine]	10 to 100	10 to 100
COc1ccc2nc(Nc3ccc(N4CCOCC4)cc3)c3n[nH]cc3c2c1 [Example #54, (8-Methoxy-2H-pyrazolo[3,4-c]quinolin-4-yl)-(4-morpholin-4-yl-phenyl)-amine]	10 to 100	10 to 100
COc1ccc2nc(Nc3cccc(N4CCOCC4)c3)c3[nH]ncc3c2c1 [Example #81, (8-Methoxy-3H-pyrazolo[3,4-c]quinolin-4-yl)-(3-morpholin-4-yl-phenyl)-amine]	100 to 1000	100 to 1000
COc1ccc(CCNC(=O)Cc2ccc(Nc3nc4ccc(OC)cc4c4c[nH]nc34)cc2)cc1 [Example #215]	–	100 to 1000
COc1ccc2nc(Nc3cccc(OC)c3OC)c3n[nH]cc3c2c1 [Example #331, N-(2,3-dimethoxyphenyl)-8-methoxy-2H-pyrazolo[3,4-c]quinolin-4-amine]	100 to 1000	–
COc1ccc(Nc2nc3ccc(OC)cc3c3c[nH]nc23)c(OC)c1 [Example #332, N-(2,4-dimethoxyphenyl)-8-methoxy-2H-pyrazolo[3,4-c]quinolin-4-amine]	100 to 1000	–
O=C1COc2ccc(Nc3nc4cc(F)ccc4c4cn[nH]c34)cc2N1 [Example #334, 6-((7-fluoro-3H-pyrazolo[3,4-c]quinolin-4-yl)amino)-2H-benzo[b][1,4]oxazin-3(4H)-one]	10 to 100	–
Fc1ccc2c(c1)nc(Nc1ccc(N3CCOCC3)cc1)c1[nH]ncc12 [Example #335, 7-fluoro-N-(4-morpholinophenyl)-3H-pyrazolo[3,4-c]quinolin-4-amine]	10 to 100	–
COc1ccc(Nc2nc3cc(F)ccc3c3cn[nH]c23)cc1OC [Example #336, N-(3,4-dimethoxyphenyl)-7-fluoro-3H-pyrazolo[3,4-c]quinolin-4-amine]	10 to 100	–
O=C(c1ccc(Nc2nc3cc(F)ccc3c3cn[nH]c23)cc1)N1CCCC1 [Example #342, (4-((7-fluoro-3H-pyrazolo[3,4-c]quinolin-4-yl)amino)phenyl)(pyrrolidin-1-yl)methanone]	100 to 1000	–
COc1ccc2nc(Nc3ccc(-n4nccn4)cc3)c3n[nH]cc3c2c1 [Example #345, N-(4-(2H-1,2,3-triazol-2-yl)phenyl)-8-methoxy-2H-pyrazolo[3,4-c]quinolin-4-amine]	100 to 1000	–
COc1ccc2nc(Nc3cccc(-n4nccn4)c3)c3n[nH]cc3c2c1 [Example #347, N-(3-(2H-1,2,3-triazol-2-yl)phenyl)-8-methoxy-2H-pyrazolo[3,4-c]quinolin-4-amine]	100 to 1000	–
COc1ccc2nc(Nc3ccc(NC(=O)c4ccc(F)cc4)cc3)c3n[nH]cc3c2c1 [Example #358, 4-fluoro-N-(4-((8-methoxy-2H-pyrazolo[3,4-c]quinolin-4-yl)amino)phenyl)benzamide]	< 10	–
COc1ccc2nc(Nc3ccc(N4CCOCC4)c([N+](=O)[O-])c3)c3n[nH]cc3c2c1 [Example #359, 8-methoxy-N-(4-morpholino-3-nitrophenyl)-2H-pyrazolo[3,4-c]quinolin-4-amine]	< 10	–
Fc1cc(Nc2nc3cccc(F)c3c3cn[nH]c23)ccc1N1CCOCC1 [Example #364, 9-fluoro-N-(3-fluoro-4-morpholinophenyl)-3H-pyrazolo[3,4-c]quinolin-4-amine]	–	100 to 1000

Continued, values first:

Ki (SYK kinase) [nM]	IC50 (LRRK2) [nM]	SMILES
–	100 to 1000	COc1ccc2nc(Nc3ccc4c[nH]nc4c3)c3n[nH]cc3c2c1 [Example #15, (2H-Indazol-6-yl)-(8-methoxy-2H-pyrazolo[3,4-c]quinolin-4-yl)-amine]
100 to 1000	100 to 1000	COc1ccc2nc(Nc3cccc(C)c3)c3n[nH]cc3c2c1 [Example #37, (8-Methoxy-2H-pyrazolo[3,4-c]quinolin-4-yl)-m-tolyl-amine]
–	100 to 1000	COc1ccc2nc(Nc3ccc4[nH]nnc4c3)c3n[nH]cc3c2c1 [Example #48, (1H-Benzotriazol-5-yl)-(8-methoxy-2H-pyrazolo[3,4-c]quinolin-4-yl)-amine]
100 to 1000	100 to 1000	COc1ccc2nc(Nc3ccc(C#N)cc3)c3n[nH]cc3c2c1 [Example #59, 4-(8-Methoxy-2H-pyrazolo[3,4-c]quinolin-4-ylamino)-benzonitrile]
10 to 100	100 to 1000	COc1ccc(Nc2nc3ccc(OC)cc3c3c[nH]nc23)cc1 [Example #61, (4-Methoxy-phenyl)-(8-methoxy-2H-pyrazolo[3,4-c]quinolin-4-yl)-amine]
10 to 100	100 to 1000	COc1ccc2nc(Nc3cc[nH]n3)c3n[nH]cc3c2c1 [Example #66, (8-Methoxy-2H-pyrazolo[3,4-c]quinolin-4-yl)-(1H-pyrazol-3-yl)-amine]
10 to 100	10 to 100	COc1ccc2nc(Nc3ccc4c[nH]nc4c3)c3n[nH]cc3c2c1 [Example #74, (1H-Indazol-6-yl)-(8-methoxy-2H-pyrazolo[3,4-c]quinolin-4-yl)-amine]
10 to 100	< 10	COc1ccc2nc(Nc3cc(-c4ccccc4)n[nH]3)c3n[nH]cc3c2c1 [Example #77, (8-Methoxy-2H-pyrazolo[3,4-c]quinolin-4-yl)-(5-phenyl-2H-pyrazol-3-yl)-amine]
–	100 to 1000	COc1ccc2nc(Nc3ccc(C(C)=O)cc3)c3n[nH]cc3c2c1 [Example #145, 1-[4-(8-Methoxy-2H-pyrazolo[3,4-c]quinolin-4-ylamino)-phenyl]-ethanone]
100 to 1000	–	COc1ccc2nc(Nc3cc(F)cc(F)c3)c3n[nH]cc3c2c1 [Example #315, N-(3,5-difluorophenyl)-8-methoxy-2H-pyrazolo[3,4-c]quinolin-4-amine]
< 10	–	COc1ccc2nc(Nc3ccc([N+](=O)[O-])cc3)c3n[nH]cc3c2c1 [Example #318, 8-methoxy-N-(4-nitrophenyl)-2H-pyrazolo[3,4-c]quinolin-4-amine]
